Reference: US20210317092A1 (BAYER PHARMA AKTIENGESELLSCHAFT, priority 2016, published 2021)
Read-outs that look alike come from different tables or passages of the source.

Key:
[1] = molecular target: T1, human Bradykinin B1 receptor (Homo sapiens, UniProt P46663); assay: Calcium flux Assay (FLIPR) with recombinant CHO-K1 cells expressing human Bradykinin B1 receptor, in presence (hB1 IC50) or absence (hB1 free IC50) of 0.1% BSA; assay type: cell-based
T1 construct: host or cells: CHO-K1
T1 sequence (P46663 1-353): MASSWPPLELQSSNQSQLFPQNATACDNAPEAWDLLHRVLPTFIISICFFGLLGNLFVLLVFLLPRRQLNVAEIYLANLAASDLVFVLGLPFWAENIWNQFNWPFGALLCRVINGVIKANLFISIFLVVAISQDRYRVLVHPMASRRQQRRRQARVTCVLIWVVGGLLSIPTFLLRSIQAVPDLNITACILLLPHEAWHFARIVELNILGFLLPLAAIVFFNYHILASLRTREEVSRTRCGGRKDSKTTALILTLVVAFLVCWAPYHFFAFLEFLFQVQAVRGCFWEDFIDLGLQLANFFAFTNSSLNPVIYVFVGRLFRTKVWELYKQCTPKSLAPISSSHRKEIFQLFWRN

[2] = molecular target: T2, native human Bradykinin B1 receptor (Homo sapiens, UniProt P46663); assay: Calcium flux Assay (FLIPR) with human fibroblasts expressing Bradykinin B1 receptor (hB1 IMR-90); assay type: cell-based; conditions: IMR-90 human fibroblasts expressing native Bradykinin B1 receptor
T2 construct: which express native human Bradykinin B1 receptor after induction with human IL-10; Coriell Institute; host or cells: IMR-90 human foetal lung fibroblasts, cytokine-induced
T2 sequence (P46663 1-353): T1 sequence (P46663 1-353)
Procedure: Calcium flux Assay (FLIPR) with human fibroblasts expressing Bradykinin B1 receptor (hB1 IMR-90)
The Calcium flux Assay was carried out utilising IMR-90 human foetal lung fibroblasts (American Type Culture Collection, Rockville, Md.; and Coriell Institute, Camden, N.J.), which express native human Bradykinin B1 receptor after induction with human […].
The fibroblasts were cultured in complete growth media comprised of Dulbecco's modified Eagle's medium (DMEM; Sigma) containing 10% foetal bovine serum, 4 mM L-glutamine, and 1% nonessential amino acids. The cells were maintained in a humidified atmosphere with 5% CO2 at 37° C. and were sub-cultured at a ratio of 1:3, every other day.
For the assay, IMR-90 fibroblasts were harvested using TrypLE Express (GIBCO/Invitrogen) and seeded into 384-well plates (Corning Cellbinding Surface, Cat. 3683) at a density of 15000 cells/well. The following day, cells were treated with 0.35 ng/mL human […] in 10% FBS/MEM for 3h to up-regulate Bradykinin B1 receptor. Induced cells were loaded with fluorescent calcium indicator by incubation with 2.5 μM Fluo-4/AM (Invitrogen) at 37° C., 5% CO2 for 2 h in the presence of 2.5 mM probenecid in 1% FBS/MEM. Extracellular dye was removed by washing with assay buffer (2.5 mM probenecid and 0.1% BSA in 20 mM HEPES/HBSS without bicarbonate or phenol red, pH 7.5). Compound examples were assayed at 8 concentrations in triplicate. After addition of compound examples to the cell plate and incubation for 30 min at 28° C., the addition of Bradykinin B1 agonist Lys-(Des-Arg)-Bradykinin (Bachem, Brackley) at a final concentration of EC90 was carried out on the FLIPR instrument while continuously monitoring Ca^2+-dependent fluorescence at 538 nm. A peptide antagonist Lys-(Des-Arg-Leu)-Bradykinin (Bachem, Brackley) at 20 µM was used to determine the full inhibition as control. IC50 values were determined by the same way described for the FLIPR assay with recombinant cells.

[3] = in absence of 0.1% BSA, read-out: hB1 free IC50
[4] = in presence of 0.1% BSA, read-out: hB1 IC50

| SMILES | IC50 [1, 3] [nM] | IC50 [2] [nM] | IC50 [1, 4] [nM] |
| --- | --- | --- | --- |
| O=C(Nc1ccc(-c2ccc(C(F)F)nc2)c(-c2nnn[nH]2)c1)C1(c2ccc(F)c(F)c2)CC1 [Example 207, N-{4-[6-(difluoromethyl)pyridin-3-yl]-3-(1H-tetrazol-5-yl)phenyl}-1-(3,4-difluorophenyl) cyclopropane-carboxamide] | 22.4 | 14.9 |  |
| Cc1cc(-c2ccc(NC(=O)C3(c4cccc(Cl)c4F)CC3)cc2-c2nnn[nH]2)ccn1 [Example 211, 1-(3-chloro-2-fluorophenyl)-N-[4-(2-methylpyridin-4-yl)-3-(1H-tetrazol-5-yl)phenyl] cyclopropane-carboxamide] | 10.5 | 19.1 | 23.1 |
| CC(C)(O)Cc1ccc(-c2ccc(NC(=O)C3(c4cccc(Cl)c4)CC3)cc2-c2nnn[nH]2)cn1 [Example 343, 1-(3-Chlorophenyl)-N-{4-[6-(2-hydroxy-2-methylpropyl)pyridin-3-yl]-3-(1H-tetrazol-5-yl)phenyl}cyctopropanecarboxamide] | 259 | 110 | 113 |
| O=C(Nc1ccc(-c2ccc(C(F)(F)F)nc2)c(-c2nnn[nH]2)c1)C1(c2cccc(C(F)(F)F)c2)CC1 [Example 144, N-{3-(1H-tetrazol-5-yl)-4-[6-(trifluoromethyl)pyridin-3-yl]phenyl}-1-[3-(trifluoromethyl)phenyl] cyclopropane-carboxamide] | 300 | 289 |  |
| COc1cc(-c2ccc(NC(=O)C3(c4ccc(C(F)(F)F)cc4F)CC3)cc2-c2nnn[nH]2)cnc1C(F)(F)F [Example 147, 1-[2-fluoro-4-(trifluoromethyl)phenyl]-N-{4-[5-methoxy-6-(trifluoromethyl)pyridin-3-yl]-3-(1H-tetrazol-5-yl)phenyl} cyclopropane-carboxamide] | 35.3 | 36.3 |  |
| CCOc1ncc(-c2ccc(NC(=O)C3(c4cccc(Cl)c4)CC3)cc2-c2nnn[nH]2)cc1Cl [Example 328, N-[4-(5-chloro-6-ethoxypyridin-3-yl)-3-(1H-tetrazol-5-yl)phenyl]-1-(3-chlorophenyl)cy-clopropanecarbox-amide] | 13.5 | 127 | 77.9 |
| CCOc1ccc(-c2ccc(NC(=O)C3(c4ccc(C)cc4)CC3)cc2-c2nnn[nH]2)cn1 [Example 99, N-[4-(6-ethoxypyridin-3-yl)-3-(1H-tetrazol-5-yl)phenyl]-1-(4-methylphenyl) cyclopropane-carboxamide] |  | 11.8 | 24 |
| Cn1ncc2ccc(-c3ccc(NC(=O)C4(c5ccc(C(F)(F)F)cc5F)CC4)cc3-c3nnn[nH]3)cc21 [Example 215, 1-[2-fluoro-4-(trifluoromethyl)phenyl]-N-[4-(1-methyl-1H-indazol-6-yl)-3-(1H-tetrazol-5-yl)phenyl] cyclopropane-carboxamide] | 3.21 | 8.48 |  |
| CCOc1ccc(-c2ccc(NC(=O)C3(c4ccc(C(F)(F)F)cc4F)CC3)cc2-c2nnn[nH]2)cn1 [Example 72, N-[4-(6-ethoxypyridin-3-yl)-3-(1H-tetrazol-5-yl)phenyl]-1-[2-fluoro-4-(trifluoromethyl)phenyl] cyclopropane-carboxamide] | 6.82 | 5.72 | 15.5 |
| COc1cnccc1-c1ccc(NC(=O)C2(c3cccc(Cl)c3)CC2)cc1-c1nnn[nH]1 [Example 327, 1-(3-chlorophenyl)-N-[4-(3-methoxypyridin-4-yl)-3-(1H-tetrazol-5-yl)phenyl]cyclopro-panecarboxa-mide] | 71.2 | 164 | 70.9 |
| COc1ccc(-c2ccc(NC(=O)C3(c4ccc(C(F)(F)F)cc4)CC3)cc2-c2nnn[nH]2)cc1OC [Example 44, N-[3′,4′-dimethoxy-2-(1H-tetrazol-5-yl)biphenyl-4-yl]-1-[4-(trifluoromethyl)phenyl] cyclopropane-carboxamide] | 5.7 | 5.47 | 23 |
| CCOc1ccc(-c2ccc(NC(=O)C3(c4cccc(F)c4)CC3)cc2-c2nnn[nH]2)cn1 [Example 80, N-[4-(6-ethoxypyridin-3-yl)-3-(1H-tetrazol-5-yl)phenyl]-1-(3-fluorophenyl) cyclopropane-carboxamide] | 29.6 | 27.2 | 25.6 |
| O=C(Nc1cc(F)c(-c2ccnc(C(F)(F)F)c2)c(-c2nnn[nH]2)c1)C1(c2cccc(Cl)c2)CC1 [Example 243, 1-(3-chlorophenyl)-N-{3-fluoro-5-(1H-tetrazol-5-yl)-4-[2-(trifluoromethyl)pyridin-4-yl]phenyl} cyclopropane-carboxamide] | 203 | 575 |  |
| O=C(Nc1cc(-c2nnn[nH]2)c(-c2ccc(C(F)(F)F)nc2)cc1O)C1(c2ccc(F)c(Cl)c2)CC1 [Example 220, 1-(3-chloro-4-fluorophenyl)-N-{2-hydroxy-5-(1H-tetrazol-5-yl)-4-[6-(trifluoromethyl)pyridin-3-yl]phenyl} cyclopropane-carboxamide] | 27.4 | 23.1 | 49.8 |
| CCOc1ncc(-c2ccc(NC(=O)C3(c4cccc(Cl)c4)CC3)cc2-c2nnn[nH]2)cc1F [Example 163, 1-(3-chlorophenyl)-N-[4-(6-ethoxy-5-fluoropyridin-3-yl)-3-(1H-tetrazol-5-yl)phenyl] cyclopropane-carboxamide] | 14.2 | 28.9 | 28.1 |
| CCOc1ccc(-c2ccc(NC(=O)C3(c4ccc(Cl)c(F)c4)CC3)cc2-c2nnn[nH]2)cn1 [Example 70, 1-(4-chloro-3-fluorophenyl)-N-[4-(6-ethoxypyridin-3-yl)-3-(1H-tetrazol-5-yl)phenyl] cyclopropane-carboxamide] | 9.27 | 6 | 12.5 |
| Cc1ccc(-c2ccc(NC(=O)C3(c4ccc(C(F)(F)F)cc4F)CC3)cc2-c2nnn[nH]2)cn1 [Example 209, 1-[2-fluoro-4-(trifluoromethyl)phenyl]-N-[4-(6-methylpyridin-3-yl)-3-(1H-tetrazol-5-yl)phenyl] cyclopropane-carboxamide] | 2.96 | 3.05 |  |
| CCOc1ccc(-c2ccc(NC(=O)C3(c4cccc(C)c4)CC3)cc2-c2nnn[nH]2)cn1 [Example 94, N-[4-(6-ethoxypyridin-3-yl)-3-(1H-tetrazol-5-yl)phenyl]-1-(3-methylphenyl) cyclopropane-carboxamide] |  | 25.1 | 23.8 |
| CCOc1ncc(-c2ccc(NC(=O)C3(c4cccc(Cl)c4)CC3)cc2-c2nnn[nH]2)cc1C [Example 160, 1-(3-chlorophenyl)-N-[4-(6-ethoxy-5-methylpyridin-3-yl)-3-(1H-tetrazol-5-yl)phenyl] cyclopropane-carboxamide] | 8.13 | 26.7 | 47.7 |
| O=C(Nc1ccc(-c2ccnc(C(F)(F)F)c2)c(-c2nnn[nH]2)c1)C1(c2cccc(Cl)c2)CC1 [Example 171, 1-(3-chlorophenyl)-N-{3-(1H-tetrazol-5-yl)-4-[2-(trifluoromethyl)pyridin-4-yl]phenyl} cyclopropane-carboxamide] | 422 | 281 | 358 |
| CCOc1ccc(-c2cc(O)c(NC(=O)C3(c4cccc(Cl)c4)CC3)cc2-c2nnn[nH]2)cn1 [Example 263, 1-(3-chlorophenyl)-N-[4-(6-ethoxypyridin-3-yl)-2-hydroxy-5-(1H-tetrazol-5-yl)phenyl]cyclopro-panecarboxa-mide] | 7.72 | 33.8 | 34.5 |
| O=C(Nc1cc(F)c(-c2ccnc(C(F)(F)F)c2)c(-c2nnn[nH]2)c1)C1(c2ccc(F)c(F)c2)CC1 [Example 244, 1-(3,4-difluorophenyl)-N-{3-fluoro-5-(1H-tetrazol-5-yl)-4-[2-(trifluoromethyl)pyridin-4-yl]phenyl} cyclopropane-carboxamide] | 176 | 512 |  |
